Test results as given in patent US20070275960A1, “Phenyl and pyridyl compounds for inflammation and immune-related uses” (Synta Pharmaceuticals Corp., priority 2006, published 2007).
Structures can show the parent of a compound that is named as a salt.

System: IL-2 production
Assay: Inhibition of IL-2 production in PHA-activated Jurkat cells (ELISA)
Type: cell-based
Settings: PHA 2.5 μg/mL, 20 hours at 37° C., IL-2 by ELISA
Protocol: Jurkat cells were placed in a 96 well plate (0.5 million cells per well in 1% FBS medium) then a test compound of this invention was added at different concentrations. After 10 minutes, the cells were activated with PHA (final concentration 2.5 μg/mL) and incubated for 20 hours at 37° C. under CO2. The final volume was 200 μL. Following incubation, the cells were centrifuged and the supernatants collected and stored at −70° C. prior to assaying for IL-2 production. A commercial ELISA kit (IL-2 Eli-pair, Diaclone Research, Besancon, France) was used to detect production of IL-2, from which dose response curves were obtained. The IC50 value was calculated as the concentration at which 50% of maximum IL-2 production after stimulation was inhibited versus a non-stimulation control.

IC50 (Homo sapiens, Jurkat, 20 h)	other results	SMILES
22 nM		Cc1cc(-c2ccno2)sc1-c1ccc(NC(=O)c2cnns2)cc1 [Compound 102, [1,2,3]thiadiazole-5-carboxylic acid [4-(3-methyl-5-isoxazol-5-yl-thiophen-2-yl)-phenyl]-amide]
> 1000 nM		Cc1cc(NC(=O)c2c(F)cccc2F)ccc1-c1nc(C(F)(F)F)cs1 [Compound 91, 2,6-Difluoro-N-[3-methyl-4-(4-trifluoromethyl-thiazole-2-yl)-phenyl]-benzamide]
11 nM		O=C(Nc1ccc(-c2sc(-c3ccno3)cc2Cl)cc1)c1ccncc1F [Compound 114, 3-Fluoro-N-[4-(3-chloro-5-isoxazol-5-yl-thiophen-2-yl)-phenyl]-isonicotinamide]
7.2 nM		Cc1cnccc1C(=O)Nc1ccc(-c2sc(-c3cncnc3)cc2C)cc1 [Compound 97, 3-Methyl-N-[4-(3-methyl-5-pyrimidin-5-yl-thiophen-2-yl)-phenyl]-isonicotinamide]
83.8 nM		Cc1cc(-c2ccno2)sc1-c1ccc(NC(=O)c2csnn2)cc1 [Compound 106, [1,2,3]thiadiazol-4-carboxylic acid [4-(3-methyl-5-isoxazol-5-yl-thiophen-2-yl)-phenyl]-amide]
1 nM		COC(=O)c1cc(-c2ccc(NC(=O)c3c(F)cccc3F)cc2)c(C)s1 [Compound 1, 4-[4-(2,6-Difluoro-benzoylamino)-phenyl]-5-methyl-thiophene-2-carboxylic acid methyl ester]
6.7 nM		Cc1cnccc1C(=O)Nc1ccc(-c2sc(-c3cnco3)cc2Cl)cc1 [Compound 112, 3-Methyl-N-[4-(3-chloro-5-oxazol-5-yl-thiophen-2-yl)-phenyl]-isonicotinamide]
7.6 nM		Cc1cc(-c2ccno2)sc1-c1ccc(NC(=O)c2cnsc2)cc1 [Compound 105, Isothiazol-4-carboxylic acid [4-(3-methyl-5-isoxazol-5-yl-thiophen-2-yl)-phenyl]-amide]
4.8 nM		Cc1cc(-c2cnco2)sc1-c1ccc(NC(=O)c2cccn2C)cc1 [Compound 116, 1-Methyl-1H-pyrrol-2-carboxylic acid [4-(3-methyl-5-oxazol-5-yl-thiophen-2-yl)-phenyl]-amide]
41 nM		Cc1cc(-c2cnco2)sc1-c1ccc(NC(=O)Nc2ccncc2F)cc1 [Compound 127, 1-(3-fluoro-pyridin-4-yl)-3-[4-(5-oxazol-5-yl-3-methyl-thiophen-2-yl)-phenyl]-urea]
19 nM		Cc1cc(-c2ccno2)sc1-c1ccc(NCc2ccncc2F)cc1 [Compound 128, (3-Fluoro-pyridin-4-ylmethyl)-[4-(5-isoxazol-5-yl-3-methyl-thiophen-2-yl)-phenyl]-amine]
9.3 nM		Cc1cc(-c2cncnc2)sc1-c1ccc(NC(=O)c2snnc2C)cc1 [Compound 98, 4-Methyl-[1,2,3]thiadiazole-5-carboxylic acid [4-(3-methyl-5-pyrimidin-5-yl-thiophen-2-yl)-phenyl]-amide]
1 nM		Cc1cc(-c2ncco2)sc1-c1ccc(NC(=O)c2c(F)cccc2F)cc1 [Compound 39, 2,6-Difluoro-N-[4-(3-methyl-5-oxazol-2-yl-thiophen-2-yl)-phenyl]-benzamide]
	IC50 (hydrochloride): 10.5 nM	Cc1cc(-c2ccccn2)sc1-c1ccc(NC(=O)c2snnc2C)cc1 [Compound 100, 4-Methyl-[1,2,3]thiadiazole-5-carboxylic acid [4-(3-methyl-5-pyridin-2-yl-thiophen-2-yl)-phenyl]-amide, hydrochloride]
	IC50: 4.8 nM	Cc1cc(-c2ccccn2)sc1-c1ccc(NC(=O)c2snnc2C)cc1 [Compound 119, 4-Methyl-[1,2,3]thiadiazole-5-carboxylic acid [4-(3-methyl-5-pyridin-2-yl-thiophen-2-yl)-phenyl]-amide]
48.8 nM		Cc1cc[nH]c1C(=O)Nc1ccc(-c2sc(-c3ccno3)cc2C)cc1 [Compound 117, 3-Methyl-1H-pyrrol-2-carboxylic acid [4-(3-methyl-5-isoxazol-5-yl-thiophen-2-yl)-phenyl]-amide]
3 nM		COC(=O)c1cc(-c2ccc(NC(=O)c3ccncc3C)cc2)c(C)s1 [Compound 2, 5-Methyl-4-{4-[(3-methyl-pyridine-4-carbonyl)-amino]-phenyl}-thiophene-2-carboxylic acid methyl ester]
2.1 nM		Cc1cnccc1C(=O)Nc1ccc(-c2sc(-c3cccnc3)cc2C)cc1 [Compound 96, 3-Methyl-N-[4-(3-methyl-5-pyridin-3-yl-thiophen-2-yl)-phenyl]-isonicotinamide]
10 nM		Cc1cnccc1C(=O)Nc1ccc(-c2sc(-c3ccno3)cc2Cl)cc1 [Compound 113, 3-Methyl-N-[4-(3-chloro-5-isoxazol-5-yl-thiophen-2-yl)-phenyl]-isonicotinamide]
	IC50: 2.7 nM	Cc1cnccc1C(=O)Nc1ccc(-c2sc(-c3ncco3)cc2C)cc1 [Compound 109, 3-Methyl-N-[4-(3-methyl-5-oxazol-2-yl-thiophen-2-yl)-phenyl]-isonicotinamide]
8.7 nM		Cc1cnccc1C(=O)Nc1ccc(-c2sc(-c3nccs3)cc2C)cc1 [Compound 111, 3-Methyl-N-[4-(3-methyl-5-thiazol-2-yl-thiophen-2-yl)-phenyl]-isonicotinamide]
9.6 nM		Cc1cncnc1C(=O)Nc1ccc(-c2sc(-c3cnco3)cc2C)cc1 [Compound 115, 5-Methyl-pyrimidine-4-carboxylic acid [4-(3-methyl-5-oxazol-5-yl-thiophen-2-yl)-phenyl]-amide]
> 1000 nM		Cc1cc(-c2ccno2)sc1-c1ccc(NC(=O)c2ccnn2C)cc1 [Compound 104, 1-Methyl-1H-pyrazol-5-carboxylic acid [4-(3-methyl-5-isoxazol-5-yl-thiophen-2-yl)-phenyl]-amide]
3 nM		Cc1sc(-c2cnco2)cc1-c1ccc(NC(=O)c2c(F)cccc2F)cc1 [Compound 3, 2,6-Difluoro-N-[4-(2-methyl-5-oxazol-5-yl-thiophen-3-yl)-phenyl]-benzamide]
8.6 nM		Cc1cnccc1C(=O)Nc1ccc(-c2cc(-c3ncco3)sc2C)cc1 [Compound 124, 3-Methyl-N-[4-(2-methyl-5-oxazol-2-yl-thiophen-3-yl)-phenyl]-isonicotinamide]
5.2 nM		Cc1cc(-c2ccncc2)sc1-c1ccc(NC(=O)c2snnc2C)cc1 [Compound 99, 4-Methyl-[1,2,3]thiadiazole-5-carboxylic acid [4-(3-methyl-5-pyridin-4-yl-thiophen-2-yl)-phenyl]-amide, hydrochloride]
3 nM		Cc1cnccc1C(=O)Nc1ccc(-c2sc(-c3ncco3)cc2C)cc1 [Compound 93, 3-Methyl-N-[4-(3-methyl-5-oxazol-2-yl-thiophen-2-yl)-phenyl]-isonicotinamide]
2.8 nM		Cc1cncnc1C(=O)Nc1ccc(-c2sc(-c3ccno3)cc2C)cc1 [Compound 107, 5-Methyl-pyrimidine-4-carboxylic acid [4-(3-methyl-5-isoxazol-5-yl-thiophen-2-yl)-phenyl]-amide]
4 nM		Cc1cc(-c2ncco2)sc1-c1ccc(NC(=O)c2snnc2C)cc1 [Compound 92, 4-Methyl-[1,2,3]thiadiazole-5-carboxylic acid [4-(3-methyl-5-oxazol-2-yl-thiophen-2-yl)-phenyl]-amide]
